The values below come from patent US20220002806A1, “BIOMARKER” (ERBER AKTIENGESELLSCHAFT, priority 2018, published 2022).

One data set deals with T1, pregnane X receptor (Homo sapiens, UniProt O75469).
T1 sequence (O75469 1-434): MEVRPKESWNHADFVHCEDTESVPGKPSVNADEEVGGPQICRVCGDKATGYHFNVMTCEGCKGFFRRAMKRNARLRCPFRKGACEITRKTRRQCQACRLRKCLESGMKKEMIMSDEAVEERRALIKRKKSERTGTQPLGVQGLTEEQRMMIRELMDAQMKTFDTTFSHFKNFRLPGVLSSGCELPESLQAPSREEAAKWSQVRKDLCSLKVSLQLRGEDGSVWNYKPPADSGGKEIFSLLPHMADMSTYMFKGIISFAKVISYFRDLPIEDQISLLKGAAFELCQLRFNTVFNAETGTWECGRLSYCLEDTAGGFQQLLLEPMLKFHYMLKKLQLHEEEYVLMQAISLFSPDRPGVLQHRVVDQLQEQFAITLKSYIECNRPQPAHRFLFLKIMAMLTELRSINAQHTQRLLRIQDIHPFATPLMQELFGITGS
The conditions noted are these: in vitro; Ayed-Boussema et al. 2011; cited from earlier work.

Another data set relates to miR-7. The conditions noted are these: ovariectomized pigs; intraperitoneal injection of 112.5 mg ZEN per day; He et al. 2018; cited from earlier work.
The next data set deals with miRNAs in serum. In words: Targeted qPCR-based miRNA analysis in blood serum of ZEN-exposed piglets. Type of data set: in vivo, pig. An excerpt:
Weaned female piglets (sow: Landrace×Large White, boar: Pietrain; 30+/−2 days old) were obtained from a local producer and individually tagged. Piglets were housed in slatted floor pens under controlled environmental conditions. After an acclimatization period of seven days, twenty-four female piglets were selected based on both body weight and vulva size, and allocated to one of four groups (6 animals/group). Piglets received either blank feed (negative control; Ctrl) or feed contaminated with ZEN in three increasing concentrations (ZEN low: 0.17 mg/kg diet; ZEN medium: 1.5 mg/kg diet; ZEN high: 4.6 mg/kg diet). During the 28-day experimental period, each treatment group was given free access to water and the assigned diet. The pigs were observed daily and weighed weekly.
Blood was collected weekly (d 0, 6, 14, 21 and 28) from individual animals by punctuation of the vena cava cranialis (Primavette® EDTA, Kabe Labortechnik GmbH, Nümbrecht-Elsenroth, Deutschland). After centrifugation (1500×g, 20 min), serum samples were stored at −80° C. for later analysis. Vulva length and width were measured at regular intervals with a caliper to determine the dietary ZEN effects. The vulva area was calculated as vulva length×vulva width, as previously reported (Jiang et al. 2011. Journal of animal science, 89, 3008-3015). Eight measurements were done per piglet over the experimental period.
miRNA extraction and qPCR analysis: Unlike the small-RNA-Seq analysis, all the animals from the feeding trial were used for investigations of the miRNA profile in the serum (6 per group; total of 24 animals). RNA was isolated from the serum samples using the miRNeasy Mini Kit (Qiagen, Germany). […] To calculate the cycle of quantification values (Cq-values), the second derivative method was used, as known by a person skilled in the art. Cq-values were normalized to the mean Cq-value in each sample (global mean normalization) by subtracting the individual miRNA Cq-value from the Cq average calculated for that sample. […]
On the technique in general: Real-time PCR tracks product formation cycle by cycle.

The next data set deals with prepuberal gilts. The conditions noted are these: prepuberal gilts fed diets containing 1-5 ppm ZEN; Osweiler; cited from earlier work.
The next data set has as its target estrogen receptors β (Homo sapiens, UniProt Q92731). The conditions noted are these: Zinedine et al. 2007; cited from earlier work.
The target in another data set is estrogen receptors α (Homo sapiens, UniProt P03372). The conditions noted are these: Zinedine et al. 2007; cited from earlier work.
Sequence of estrogen receptors α (P03372 whole entry): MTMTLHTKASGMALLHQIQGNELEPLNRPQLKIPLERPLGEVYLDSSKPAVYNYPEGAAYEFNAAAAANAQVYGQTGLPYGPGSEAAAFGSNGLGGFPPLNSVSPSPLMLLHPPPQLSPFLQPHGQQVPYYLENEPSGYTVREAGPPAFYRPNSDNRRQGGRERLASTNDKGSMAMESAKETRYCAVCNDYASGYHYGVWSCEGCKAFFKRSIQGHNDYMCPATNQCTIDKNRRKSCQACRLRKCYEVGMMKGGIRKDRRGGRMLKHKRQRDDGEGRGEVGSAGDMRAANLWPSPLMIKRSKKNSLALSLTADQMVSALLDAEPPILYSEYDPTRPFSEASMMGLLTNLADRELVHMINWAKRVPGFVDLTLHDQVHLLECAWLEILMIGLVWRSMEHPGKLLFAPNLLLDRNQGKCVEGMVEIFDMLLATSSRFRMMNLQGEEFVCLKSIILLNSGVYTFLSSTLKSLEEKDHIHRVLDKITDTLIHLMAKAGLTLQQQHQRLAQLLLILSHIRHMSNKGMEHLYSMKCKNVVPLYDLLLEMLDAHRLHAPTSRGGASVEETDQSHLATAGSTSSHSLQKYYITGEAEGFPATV
Setting [1] is: Ctrl vs ZEN high group (4.6 mg/kg diet), day 6 or day 28, unadjusted p-value ≤0.1.

The structures appear in SMILES notation.

Sequence of estrogen receptors β (Q92731 whole entry): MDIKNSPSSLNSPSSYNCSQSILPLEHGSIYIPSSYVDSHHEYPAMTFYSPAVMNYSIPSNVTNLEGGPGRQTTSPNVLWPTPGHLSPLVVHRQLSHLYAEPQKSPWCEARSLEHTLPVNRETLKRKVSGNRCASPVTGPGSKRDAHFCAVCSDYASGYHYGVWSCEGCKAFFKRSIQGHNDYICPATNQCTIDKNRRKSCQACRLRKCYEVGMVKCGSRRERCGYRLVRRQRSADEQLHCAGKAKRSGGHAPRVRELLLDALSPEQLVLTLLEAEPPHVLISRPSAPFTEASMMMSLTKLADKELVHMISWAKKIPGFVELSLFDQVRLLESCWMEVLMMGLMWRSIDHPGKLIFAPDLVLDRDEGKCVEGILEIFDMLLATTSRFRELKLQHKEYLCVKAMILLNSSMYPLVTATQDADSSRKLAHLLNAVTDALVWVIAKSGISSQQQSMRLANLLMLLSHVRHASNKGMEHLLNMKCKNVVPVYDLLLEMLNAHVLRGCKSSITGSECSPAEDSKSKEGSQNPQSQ

`C[C@H]1CCCC(=O)CCC/C=C/c2cc(O)cc(O)c2C(=O)O1` [ZEN, (2E,11S)-15,17-dihydroxy-11-methyl-12-oxabicyclo[12.4.0]octadeca-1(18),2,14,16-tetraene-7,13-dione]: the “action on pregnane X receptor” value at pregnane X receptor is “activates”. Moreover, the “expression of miR-7 in pituitary tissue” value in the data set with miR-7 is reported as “increase”. In the data set with miRNAs in serum (setting [1]), the “serum levels of ssc-miR-1, ssc-miR-142-3p, ssc-miR-181c and ssc-miR-182” value is “down-regulated”; the “serum levels of ssc-miR-140-3p, ssc-miR-455-3p, ssc-miR-455-5p and ssc-miR-542-3p” value was “Up-regulated”. Further, in the data set with miRNAs in serum (Ctrl vs ZEN high group, log 2 fold changes ≤−0.8 or ≥0.8), the “log 2-transformed fold changes of serum ssc-miR-129a, ssc-miR-135, ssc-miR-206, ssc-miR-432-5p, ssc-miR-493-3p and ssc-miR-503” value was “considerable effect”. Further, the mammary gland development entry in the data set with prepuberal gilts was “triggered”. Further, the “agonist action on estrogen receptor β” value on estrogen receptors β was “partial agonist”. The “agonist action on estrogen receptor α” value at estrogen receptors α is reported as “full”.
